“And” between values parts separate entries of the source, which are not always exact repeats. Equal values may be shown once.

By kcat is commonly meant the number of substrate molecules converted per active site and unit of time at saturation.

One assay deals with 18 clinical isolates. Put plainly: MIC distribution against 18 clinical isolates (and Mab ATCC 19977). Type of assay: cell-based, Mycobacterium abscessus. The following applies: single agent, 18 clinical isolates (Fig. 3 also Mab ATCC 19977). The text has this: We investigated the effect of C5α-substituted carbapenems (C5α-methyl, JDB/NA-1-157 or 10a and C5α-ethyl, JDB/NA-1-208, or 10b) against Mab strain ATCC 19977, which produces BlaMab, alongside 18 clinical isolates obtained from de-identified patients. These clinical isolates were sourced from National Jewish Health, University Hospitals Cleveland Medical Center, and Cleveland MetroHealth. The strains were utilized for MIC assays and static drug concentration time-kill (SCTK) experiments. Two C5α-substituted carbapenems were designed and synthesized in the Buynak lab at SMU ([31]). The active forms of cefuroxime salts, imipenem, amoxicillin, sulbactam, and avibactam were purchased from AchemBlock, while durlobactam was provided by Innoviva Specialty Therapeutics. All β-lactams and BLIs were prepared in sterile distilled water and subsequently filter-sterilized using a 0.22 µm polyethersulfone syringe filter.
MICs were determined in duplicate following Clinical Laboratory Standards Institute ([52]) guidelines using Middlebrook 7H9 broth supplemented with 10% (vol/vol) oleic acid-albumin-dextrose-catalase (OADC) and 0.05% (vol/vol) Tween 80, with an inoculum of 5 × 10⁵ CFU/mL. […]

A further assay addresses BlaMab (Mycobacteroides abscessus, UniProt B1MCI3). The assay is described as follows: Steady-state kinetics of hydrolysis by BlaMab. Type of assay: biochemical, Mycobacterium abscessus. The note with it: best-fit value (95% confidence interval); MES buffer pH 6.4, room temperature.
In another assay the target is LDT5 (Mycobacteroides abscessus, UniProt B1MHQ4). Put plainly: Apparent inhibition constant (nitrocefin, Dixon plot). The format is biochemical, Mycobacterium abscessus. The note with it: read-out: Ki,app. On the procedure: Steady-state kinetic studies with JDB/NA-1-157 and JDB/NA-1-208 were performed using purified LDTs and PBPs, including LDT1–5, PBP-B, PBP-lipo, and D,D-carboxypeptidase. The assays were conducted on a BioTek Synergy2 multimode reader equipped with Gen5 software. To determine the Michaelis constant (Km^NCF) for each LDT and PBP, a wide range of NCF concentrations was tested, while the enzyme concentrations were fixed. Absorbance changes at 482 nm were monitored over 10 min. Steady-state kinetic parameters (Vmax and Km) were derived by fitting the experimental data to the Henri–Michaelis–Menten equation using nonlinear least-squares regression in GraphPad Prism version 9. The reaction velocity (v) at a given substrate concentration ([S]) was calculated using equation 2: […]
The apparent inhibition constants (Ki,app) for JDB/NA-1-157 and JDB/NA-1-208 were determined under the following conditions: an NCF concentration of 5 × Km, fixed concentrations of LDT or PBP enzymes, and varying concentrations of JDB/NA-1-157 and JDB/NA-1-208. Absorbance changes at 482 nm were monitored over a 30 min period for each inhibitor concentration. The data were linearized using a Dixon plot, which involves plotting the reciprocal of the absorbance change (1/ΔA) against the concentrations of JDB/NA-1-157 or JDB/NA-1-208. Apparent Ki,app values were derived from the intersection points on the Dixon plot and were subsequently corrected for substrate concentration and enzyme affinity using equation 3:
(3) Ki,app=observed Ki,app/1+[NCF]/Km NCF.

Chain of LDT5 (B1MHQ4 entry or part of it): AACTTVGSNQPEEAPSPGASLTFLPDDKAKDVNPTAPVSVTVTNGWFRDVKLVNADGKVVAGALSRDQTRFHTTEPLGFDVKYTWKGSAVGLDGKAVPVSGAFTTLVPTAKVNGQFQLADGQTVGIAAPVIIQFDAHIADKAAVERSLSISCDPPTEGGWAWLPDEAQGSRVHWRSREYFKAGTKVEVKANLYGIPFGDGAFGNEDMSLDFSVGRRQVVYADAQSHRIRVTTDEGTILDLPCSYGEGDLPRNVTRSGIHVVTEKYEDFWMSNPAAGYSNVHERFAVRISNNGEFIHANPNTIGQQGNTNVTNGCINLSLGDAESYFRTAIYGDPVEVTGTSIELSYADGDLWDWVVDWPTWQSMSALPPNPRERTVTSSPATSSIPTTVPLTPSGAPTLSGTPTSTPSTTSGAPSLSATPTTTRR
Chain of BlaMab (B1MCI3 entry or part of it): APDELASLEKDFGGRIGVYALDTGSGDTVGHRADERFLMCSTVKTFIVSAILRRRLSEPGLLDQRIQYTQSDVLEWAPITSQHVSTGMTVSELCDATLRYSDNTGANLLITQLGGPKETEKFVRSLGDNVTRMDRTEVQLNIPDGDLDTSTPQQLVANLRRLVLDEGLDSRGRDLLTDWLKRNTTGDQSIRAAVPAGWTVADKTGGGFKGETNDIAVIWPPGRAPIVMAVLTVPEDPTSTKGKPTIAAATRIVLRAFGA

Regarding `C[C@@H](O)[C@H]1C(=O)N2C(C(=O)O)=C(S[C@@H]3CN[C@H](C(=O)N(C)C)C3)C[C@]12C` [JDB/NA-1-157], the MIC range in the assay on 18 clinical isolates is 0.125 to 8.0 µg/mL and 0.125 to 8 µg/mL. Moreover, the catalytic constant (kcat) at BlaMab stood at 0.03 s⁻¹.

Take `CC[C@]12CC(S[C@@H]3CN[C@H](C(=O)N(C)C)C3)=C(C(=O)O)N1C(=O)[C@@H]2[C@@H](C)O` [JDB/NA-1-208]: on LDT5, the Ki was 28.9 µM.

Source of the values: publication PMC12326981, “Novel C5α-substituted carbapenems enhance Mycobacterium abscessus killing via selective target binding and reduced hydrolysis by BlaMab” (Antimicrobial Agents and Chemotherapy, 2025).
